Key:
[1] = target: T1, CFTR (Homo sapiens, UniProt P13569); assay: LL-37 secretion by cultured hMSCs with or without CFTR inhibition; assay type: cell-based
T1 construct: endogenous in cells; host or cells: human mesenchymal stem cells (hMSCs) from bone marrow of healthy volunteers
Protocol: FIG. 11 illustrates that hMSCs and BMM cells secrete LL-37. hMSCs utilized in the animal models were cultured in vitro with and without the addition of 0.5 ug/ml LPS (n=5 preparations) with or without inhibition of CFTR with I-172 (10 ug/ml for 48 hours) and incubated for 24 hours. […] We used the student t-test for these analyses.
(§1) To determine if CF MSCs express CFTR to validate the I-172 studies, we took advantage of an immortal mouse derived MSC clone BMC9, especially since we have a highly reproducible mouse Cftr gene expression assay in our CF animal CORE center. These cells are abundant and have s a MSC phenotype when grown at 37° C. […] The sensitivity and specificity of our Cftr expression assay is 40±2 Ct. If we had used a lower expressing tissue, the % of Cftr levels would be higher. BMC9 cells cultured with I-172 (10 μg/ml, for 48 hours) secreted 37±13% (Mean±SEM, n=3) less LL-37 than BMC9 cells not cultured with I-172 (P≦0.05). […] Our future studies are aimed at studying the differences between and Cftr deficient MSCs and control MSCs.

[2] = target: T2, CFTR (Mus musculus, UniProt P26361); assay: LL-37 secretion by BMC9 cells with CFTR inhibition; assay type: cell-based; conditions: 10 μg/ml, 48 hours; Mean±SEM, n=3
T2 construct: BMC9 cells have 0.36±0.14% Cftr expression; endogenous in cells; host or cells: BMC9 immortal mouse MSC clone
T2 sequence (P26361 whole entry): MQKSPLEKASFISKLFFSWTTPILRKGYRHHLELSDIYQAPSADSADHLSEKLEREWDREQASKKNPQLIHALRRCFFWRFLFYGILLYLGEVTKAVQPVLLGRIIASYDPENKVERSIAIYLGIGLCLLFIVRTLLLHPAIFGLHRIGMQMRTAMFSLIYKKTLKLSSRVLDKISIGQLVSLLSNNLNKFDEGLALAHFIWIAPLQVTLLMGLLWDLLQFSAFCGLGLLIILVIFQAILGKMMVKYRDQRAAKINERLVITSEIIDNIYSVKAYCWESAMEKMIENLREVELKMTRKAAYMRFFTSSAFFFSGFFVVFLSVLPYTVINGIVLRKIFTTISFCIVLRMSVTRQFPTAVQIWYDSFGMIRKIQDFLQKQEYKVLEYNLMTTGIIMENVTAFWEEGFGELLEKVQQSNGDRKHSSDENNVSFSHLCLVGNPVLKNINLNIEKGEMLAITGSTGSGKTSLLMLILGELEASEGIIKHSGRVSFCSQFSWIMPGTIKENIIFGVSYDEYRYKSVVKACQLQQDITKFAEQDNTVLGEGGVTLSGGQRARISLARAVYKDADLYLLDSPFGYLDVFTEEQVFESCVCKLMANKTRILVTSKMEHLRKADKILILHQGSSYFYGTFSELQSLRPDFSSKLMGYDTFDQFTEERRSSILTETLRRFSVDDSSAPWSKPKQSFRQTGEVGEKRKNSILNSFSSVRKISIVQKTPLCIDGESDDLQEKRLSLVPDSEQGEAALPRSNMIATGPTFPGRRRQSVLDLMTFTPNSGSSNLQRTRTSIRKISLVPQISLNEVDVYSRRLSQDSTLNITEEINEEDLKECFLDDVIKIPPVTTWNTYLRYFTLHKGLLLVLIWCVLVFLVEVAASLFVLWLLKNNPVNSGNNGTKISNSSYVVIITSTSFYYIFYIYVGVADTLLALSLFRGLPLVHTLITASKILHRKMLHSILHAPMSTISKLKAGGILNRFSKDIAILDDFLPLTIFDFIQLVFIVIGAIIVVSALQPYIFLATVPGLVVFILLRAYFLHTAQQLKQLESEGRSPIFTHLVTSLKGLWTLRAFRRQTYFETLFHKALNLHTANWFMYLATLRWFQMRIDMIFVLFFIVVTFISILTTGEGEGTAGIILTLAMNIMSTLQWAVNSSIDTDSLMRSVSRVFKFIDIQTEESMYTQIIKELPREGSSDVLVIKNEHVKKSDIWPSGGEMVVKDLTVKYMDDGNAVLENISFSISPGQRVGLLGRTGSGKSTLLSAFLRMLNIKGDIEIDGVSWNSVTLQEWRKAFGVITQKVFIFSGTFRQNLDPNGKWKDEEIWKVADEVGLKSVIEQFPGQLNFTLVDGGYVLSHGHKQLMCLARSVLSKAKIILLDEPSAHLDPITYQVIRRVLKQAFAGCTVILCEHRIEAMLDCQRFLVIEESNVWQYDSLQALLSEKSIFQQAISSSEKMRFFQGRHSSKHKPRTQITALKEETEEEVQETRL
Protocol: as §1

T1 sequence (P13569 whole entry): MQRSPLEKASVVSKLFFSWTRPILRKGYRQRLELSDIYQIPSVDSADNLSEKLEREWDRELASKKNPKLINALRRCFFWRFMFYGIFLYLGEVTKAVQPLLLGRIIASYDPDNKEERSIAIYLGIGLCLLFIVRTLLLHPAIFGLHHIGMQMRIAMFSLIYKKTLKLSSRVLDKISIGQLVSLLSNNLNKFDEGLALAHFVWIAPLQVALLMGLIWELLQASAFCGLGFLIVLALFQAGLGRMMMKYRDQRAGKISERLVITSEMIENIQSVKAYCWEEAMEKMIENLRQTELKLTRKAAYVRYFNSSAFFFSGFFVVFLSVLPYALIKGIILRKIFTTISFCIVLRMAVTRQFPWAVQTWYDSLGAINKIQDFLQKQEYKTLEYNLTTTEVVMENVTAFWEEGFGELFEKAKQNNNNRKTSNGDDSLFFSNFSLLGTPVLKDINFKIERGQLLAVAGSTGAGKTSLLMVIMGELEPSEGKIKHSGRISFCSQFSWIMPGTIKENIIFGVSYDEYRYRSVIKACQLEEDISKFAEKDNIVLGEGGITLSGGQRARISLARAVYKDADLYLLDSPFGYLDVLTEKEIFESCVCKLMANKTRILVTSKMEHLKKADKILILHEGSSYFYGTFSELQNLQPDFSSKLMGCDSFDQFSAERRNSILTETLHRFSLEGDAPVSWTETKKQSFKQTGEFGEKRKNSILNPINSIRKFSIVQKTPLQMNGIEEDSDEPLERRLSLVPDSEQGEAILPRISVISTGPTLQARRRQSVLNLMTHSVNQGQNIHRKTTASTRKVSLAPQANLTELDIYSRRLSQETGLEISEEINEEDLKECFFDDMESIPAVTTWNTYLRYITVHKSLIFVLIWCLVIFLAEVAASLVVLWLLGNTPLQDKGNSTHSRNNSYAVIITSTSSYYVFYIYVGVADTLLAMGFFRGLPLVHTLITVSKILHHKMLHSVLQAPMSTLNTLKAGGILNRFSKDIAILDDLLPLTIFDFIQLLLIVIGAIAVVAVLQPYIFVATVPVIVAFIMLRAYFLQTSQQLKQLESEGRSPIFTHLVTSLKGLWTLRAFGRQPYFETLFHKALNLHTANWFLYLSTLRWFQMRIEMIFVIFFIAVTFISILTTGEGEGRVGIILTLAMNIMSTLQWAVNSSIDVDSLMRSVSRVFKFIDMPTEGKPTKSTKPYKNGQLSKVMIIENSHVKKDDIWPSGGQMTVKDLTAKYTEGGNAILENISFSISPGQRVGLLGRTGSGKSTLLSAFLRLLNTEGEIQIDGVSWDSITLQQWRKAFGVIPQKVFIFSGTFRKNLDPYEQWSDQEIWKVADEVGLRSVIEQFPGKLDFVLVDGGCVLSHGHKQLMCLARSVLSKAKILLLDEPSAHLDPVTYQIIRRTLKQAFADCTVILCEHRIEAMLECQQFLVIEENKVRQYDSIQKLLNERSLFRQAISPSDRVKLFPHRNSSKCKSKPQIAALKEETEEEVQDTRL

- amount of LL-37 after LPS stimulation ([1]; 10 ug/ml for 48 hours then LPS, relative to LPS control): even further suppressed
- ability of hMSCs to secrete LL-37 ([1]; 10 ug/ml for 48 hours, relative to un-stimulated control): significantly reduced
- less LL-37 secreted than BMC9 cells not cultured with I-172 [2]: 37±13%
SMILES: O=C(O)c1ccc(/C=C2\SC(=S)N(c3cccc(C(F)(F)F)c3)C2=O)cc1 [I-172]
